Experimental data taken from patent publication US20260000596A1, “SEMI-SYNTHETIC RHAMNOLIPIDS” (The Procter & Gamble Company, priority 2024, published 2026).
Converted amounts (≈) assume the structure as drawn. Like-named read-outs stand apart in the source and are kept apart here.

What was measured:
Assay type in all cases: cell-based
[1] = tested on: Staphylococcus aureus ATCC #6538; assay: Minimum Inhibitory Concentration (MIC) Assay with Minimum Biocidal Concentration (MBC); details: solvent DMSO; for MBC / MIC: Staphylococcus aureus, ATCC6538, 24 h; for MBC: read-out: S. aureus MBC (ppm); for MIC: read-out: S. aureus MIC (ppm)
Description: The Minimum Inhibitory Concentration (MIC) Assay is a 96-well high throughput method that determines the minimum concentration of an active required to inhibit the growth of microorganisms. Organism preparation: Compounds were evaluated against the following microorganisms: Staphylococcus aureus ATCC #6538 (American Type Culture Collection, Manassas, Virginia, USA). To prepare bacteria solutions, bacteria were streaked on Tryptic Soy Agar (TSA) and incubated at 30-35° C. for 18-24 hrs. Confluent growth was transferred to saline (0.85% NaCl) and turbidometrically adjusted to a target concentration of 10^7-10^8 CFU/ml. This inoculum solution was further diluted 1:1000 in Tryptic Soy Broth (pH 7) for assay use. Assay: Two-fold serial dilutions were prepared in Dimethylsulfoxide (DMSO, Thermo Scientific Pierce DMSO, Sequencing Grade) or sterile water for each test sample. In a sterile 96-well plate, each dilution was further diluted in broth inoculum such that each well contained 5% dilution and 95% broth inoculum. Bacteria plates were incubated on an orbital shaker (Heidolph Titramax 1000 Vibrating Platform Shaker, 200-300 rpm) for 24±2 hrs at 35° C. After incubation, the optical density (OD) of each well was measured in a spectrophotometer (Victor Nivo Multimode Plate Reader) at 600 nm. […] To determine the Minimum Biocidal Concentration (MBC), 2 ul from each well was pipetted onto neutralizing agar (Modified Letheen Agar with Tween) and incubated for 24 hrs at 30-35° C. The MBC was determined as the most dilute concentration with no visible growth.

[2] = tested on: Escherichia coli ATCC 8739; assay: Minimal Kill Concentration Assay (MKCA), E. coli; details: for MBC: Escherichia coli, ATCC8739, 20 min, read-out: E. coli MKC (ppm)
Description: (§1) The MKC assay is a 96 well plate method to determine the minimum concentration of a test material or composition needed to kill Gram-negative and Gram-positive bacteria (Escherichia coli ATCC 8739 and Staphylococcus aureus ATCC 6538, respectively). The bacterial suspensions are prepared from 10× freezer stocks with 15% glycerol. The freezer stocks are centrifuged at 13,000×g (Eppendorf Centrifuge […] No. 541705483) for 1 minute. The supernatant is removed, and the cell pellet is resuspended in 1 mL saline (Sodium chloride solution 0.9%, Cytiva REF: Z1376), and then transferred to 9 mL saline. The target cfu/ml is 10^8, which is confirmed via serial diluting and plating on TSA plates (Tryptic Soy Agar-Sigma-Aldrich Cat #22091). Then 50 μL (25 μL if low on test materials) of bacteria is added to each well of a 96 well 0.5 mL V-Bottom plate (Greiner bio-one REF: 786201) to make a bacteria plate, one separate plate for each bacterium. The dilutions of the test compounds are prepared in a separate 96 well plate. The test compounds are tested at six dilutions in duplicates or with no replication diluted across the entire plate. The test compounds are prepared in Dimethyl Sulfoxide (Sigma Aldrich GR ACS Cat. No: MX1458-6) or sterile water at 2× the intended test concentration, and then serially diluted in the appropriate vehicle 1:2 across the plate using a multichannel. 50 μL (25 μL if low on test materials) from the test compound plate is added to each well in the bacteria plate all at once using an Integra VIAFLOW 96 channel pipette (Model: VIAFLO 96) and the Integra 300 μL Head (Part No. 6103). With addition of the 2× compounds bacteria plate, the compounds are diluted to a 1× test concentration. The addition of the test compounds to the bacteria wells starts the 20-minute contact time. The plates are mixed well using a Mix-Mate (Eppendorf SE). After 20 minutes, 1 μL from each well of the bacteria plate is transferred to premade Tryptic Soy Agar (TSA) plates (OmniTray Cell Culture Treated w/Lid Sterile, Cat. No: 165218) for spot plating using the Integra VIAFLOW 96 with the Integra 12.5 μL head (Part No. 6101). Then 4 μL from each well of the bacteria/compound plate is transferred to another 96 well plate containing 36 μL of neutralizer broth Modified Letheen Broth (BD Difco Letheen Broth, Modified REF 263010). The contact time is stopped at 20 minutes once the compound plate is neutralized. The plates are mixed well using a Mix-Mate and then 1 μL of the neutralizer+sample mix is transferred to a TSA OmniTray plate using the Integra VIAFLOW and Integra 12.5 μL head. The TSA spot plates are then incubated overnight for 20 hours at 37° C. in an Incubator. This process is done for both bacteria species. After overnight incubation, the plates are removed from the incubator and the results recorded by observing which dilutions had bacterial kill/growth. The last dilution that had kill for both replicates is recorded as the MKC. A positive control of Benzalkonium chloride (Sigma Aldrich Cat. No.: 12060-5G) and vehicle controls are always included in the test.

[3] = tested on: Staphylococcus aureus ATCC 6538; assay: Minimal Kill Concentration Assay (MKCA), S. aureus
Description: as §1

[4] = Table 1.4b, solvent DMSO, 20-minute contact time
[5] = Table 4, derivatized rhamnolipids, solvent DMSO, 20-minute contact time

| Compound | MBC ([1]; Table 5) [µg/mL] | MIC ([1]; Table 5) [µg/mL] | S. aureus MBC (ppm) ([1]; Table 5) | S. aureus MIC (ppm) ([1]; Table 5) | E. coli MKC (ppm) [2, 5] [ppm] | S. aureus MKC (ppm) [3, 5] [ppm] | further results |
| --- | --- | --- | --- | --- | --- | --- | --- |
| CCCCCC(CC(=O)O)OC1O[C@@H](C)[C@H](O)[C@@H](O)[C@H]1O (some centres unmarked) [Rha1C14] | – | – | – | – | – | – | S. aureus MIC (ppm) ([1]; Table 1.5, >=50% inhibition, 24 hrs at 35° C.): 625 ppm; S. aureus MBC (ppm) ([1]; Table 1.5, no visible growth): >10000 ppm; E. coli MKC (ppm) [2, 4]: 781 ppm; S. aureus MKC (ppm) [3, 4]: 781 ppm |
| CCCCCCCC(CC(=O)O)O[C@@H]1O[C@@H](C)[C@H](O)[C@@H](O)[C@H]1O[C@@H]1O[C@H](C)C(O)[C@@H](O)[C@H]1O (stereo partly drawn) [calcium 3-(((2R,3R,4R,5R,6S)-4,5-dihydroxy-6-methyl-3-(((2S,3R,4R,6R)-3,4,5-trihydroxy-6-methyltetrahydro-2H-pyran-2-yl)oxy)tetrahydro-2H-pyran-2-yl)oxy)decanoate] | > 4000 | > 4000 | – | – | – | – | MBC [2]: > 9390 µg/mL; MBC ([3]; Staphylococcus aureus, ATCC6538, 20 min, read-out: S. aureus MKC (ppm)): > 9390 µg/mL |
| CCCCCCCC(CC(=O)OC)O[C@@H]1O[C@@H](C)[C@H](O)[C@@H](O)[C@H]1O (stereo partly drawn) [methyl 3-(((2R,3R,4R,5R,6S)-3,4,5-trihydroxy-6-methyltetrahydro-2H-pyran-2-yl)oxy)decanoate] | 1400 (≈ 4 mM) | 1400 (≈ 4 mM) | – | – | – | – | MBC [2, 5]: > 3490 µg/mL; minimal kill concentration (20-minute contact) ([3]; Staphylococcus aureus, ATCC6538, 20 min, Table 4, derivatized rhamnolipids, solvent DMSO, 20-minute contact time, read-out: S. aureus MKC (ppm)): > 3490 µg/mL |
| Methyl 3-(((2R,3R,4R,5R,6S)-4,5-dihydroxy-6-methyl-3-(((2R,3S,4S,5S,6S)-3,4,5-trihydroxy-6-methyltetrahydro-2H-pyran-2-yl)oxy)tetrahydro-2H-pyran-2-yl)oxy)decanoate | – | – | 1978.3 | 1978.3 | >4945.8 | >4945.8 | – |
| N-benzyl-3-(((2R,3R,4R,5R,6S)-4,5-dihydroxy-6-methyl-3-(((2R,3S,4S,5S,6S)-3,4,5-trihydroxy-6-methyltetrahydro-2H-pyran-2-yl)oxy)tetrahydro-2H-pyran-2-yl)oxy)decanamide | – | – | >2278.3 | 2278.8 | >5696.9 | >5696.9 | – |
